Assay results: patent US20220056044A1, “TRICYCLIC COMPOUNDS AS STING AGONISTS, AND PREPARATION METHODS AND MEDICINAL USES THEREOF” (Jiangsu Hengrui Medicine Co., Ltd., priority 2018, published 2022)

Tests used:
Human PBMC cells = assay: IFNβ secretion from human PBMC (ELISA); type: cell-based; settings: 5 hours incubation, IFNβ in supernatant by ELISA
Method: Test Example 3. IFNβ Secretion from Human PBMC
1. Human PBMC cells (STEMCELL Technologies)
Cryopreserved peripheral blood human mononuclear cells (PBMCs) were rapidly thawed and resuspended in Lymphocyte Media and centrifuged at 500×g for 5 minutes. The supernatant was removed and the cell pellets were gently resuspended in cell culture and compound dilution media. Then the cells were plated in a 96-well format at a concentration of 1.5×10^5 per well. The test compounds, at varying concentrations, or vehicle control (<0.3% DMSO) were mixed with the cells giving a final volume of 150 μl per well. The plates were incubated in a humidified, 5% CO2 incubator at 37° C. for 5 hours. After incubation, the human IFNβ in the supernatant and the IFNβ standard controls were measured using human IFNβ Quantikine ELISA kit according to the manufacturer's protocol. The absorbance at 450 nm was measured with Infinite M1000 plate reader and corrected by background reading at 540 nm of each well. The concentration of IFNβ secreted was calculated based on the standard curves. The plot of IFNβ concentration versus the log of compound concentration was fit in GraphPad Prism with a 4-parameter concentration response equation to calculate EC50 and Emax (see Table 5).

[1] = molecular target: T1, STING in THP1-Dual KI-hSTING-R232 cells (Homo sapiens, UniProt Q86WV6, H232R); assay: Human THP1 reporter cell assay (IRF luciferase reporter); type: cell-based; settings: 24 hours incubation
T1 construct: host or cells: THP1-Dual KI-hSTING-R232 cells
Method: Test Example 2. Human THP1 Reporter Cell Assay
1. Human THP1-Dual KI-hSTING-R232 Cells (InvivoGen, Cat. #thpd-r232)
Activation of STING in THP1-Dual KI-hSTING-R232 cells was determined by measuring the luminescence signal resulting from the expression of the IRF luciferase reporter gene. All reagent preparation and assay procedures were conducted according to the protocols provided by InvivoGen. In brief, test compounds and cells (1×10^5 cells per well) were dispensed into 96-well plates with a final volume per well of 150 μl. Plates were incubated in a humidified, 5% CO2 incubator at 37° C. for 24 hours. The expression level of the reporter gene was measured by transferring 20 μl of the supernatant to a non-transparent 96-well plate to which 50 μl of QUANTI-LUC was dispensed into each well. The resulting luminescence signal was immediately read using a TECAN plate reader. The background luminescence signal from media was subtracted. The fold induction effect of the luminescence signal at each compound concentration was determined relative to controls that lack compound treatment. The plot of fold induction effect versus the log of compound concentration was fit in GraphPad Prism with a 4-parameter concentration response equation to calculate EC50 and Emax.
Activation of STING in THP1 of the compounds in the present invention was determined by the above assay, and EC50 values are shown in the following Table 4.

[2] = molecular target: T2, hSTING R232 c-terminal domain (Homo sapiens, UniProt Q86WV6, H232R); assay: Thermal shift assay for measuring the relative binding affinity to hSTING R232 c-terminal domain; settings: purified hSTING R232 (aa154-342), SYPRO Orange, Tm minus mean Tm of negative control
T2 construct: Purified hSTING R232 (aa154-342)
Method: Thermal shift assay for measuring the relative binding affinity to hSTING R232 c-terminal domain.
From each of the 10 mM stock solutions of compounds in DMSO, dilutions are made to create samples with three concentrations 10 mM, 5 mM, and 2.5 mM. From these dilutions a final 50-fold dilution is made into assay buffer, giving concentrations of 200 μM, 100 μM, and 50 μM. From each of the buffer dilutions, 5 μL is added to the 384 well assay plate. A positive control is setup with cGAMP using the same dilution scheme as the ligands. A baseline thermal shift for the negative control is determined using buffer and 2% DMSO.
An aliquot of protein is thawed on ice and SYPRO orange reagent is brought to room temperature. The 5000×SYPRO orange stock is diluted in assay buffer to a concentration of 10×. Protein is diluted to a concentration of 10 μM in the prepared buffer/dye solution. Five micro-liters of protein/buffer/dye solution is added to each of the sample and control wells, and the plate is sealed with the provided films. The plate is centrifuged for 5 min at 20° C. at 1000 rpm.
On the Light Cycler instrument, measurements are made over a temperature gradient from 20° C. to 99° C. at 0.07° C./s and data acquisitions collected at a rate of 8/° C. are used to measure the change in fluorescence as a function of temperature. Data analysis is performed using the Roche Light Cycler Software to determine the melting temperature (Tm ° C.) of each sample. A mean Tm ° C. for the negative control is calculated and subtracted from each of the samples to generate the ΔTm ° C. values for each of the ligands.
The relative binding affinity to hSTING c-terminal domain of the compounds of the present invention was determined by the above assay, and ΔTm ° C. values are shown in the following Table 3.

T1 sequence (Q86WV6 whole entry H232R): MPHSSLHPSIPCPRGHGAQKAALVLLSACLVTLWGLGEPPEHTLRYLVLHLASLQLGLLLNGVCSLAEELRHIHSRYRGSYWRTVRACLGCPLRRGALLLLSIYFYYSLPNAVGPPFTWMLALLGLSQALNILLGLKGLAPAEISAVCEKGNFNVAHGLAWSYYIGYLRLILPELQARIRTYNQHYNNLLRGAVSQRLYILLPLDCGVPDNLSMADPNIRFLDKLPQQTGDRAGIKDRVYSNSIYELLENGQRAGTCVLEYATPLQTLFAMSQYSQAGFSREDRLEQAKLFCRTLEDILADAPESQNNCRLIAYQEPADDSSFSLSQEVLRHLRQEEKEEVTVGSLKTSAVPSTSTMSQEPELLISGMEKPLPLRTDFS
T2 sequence (Q86WV6 154-342 H232R): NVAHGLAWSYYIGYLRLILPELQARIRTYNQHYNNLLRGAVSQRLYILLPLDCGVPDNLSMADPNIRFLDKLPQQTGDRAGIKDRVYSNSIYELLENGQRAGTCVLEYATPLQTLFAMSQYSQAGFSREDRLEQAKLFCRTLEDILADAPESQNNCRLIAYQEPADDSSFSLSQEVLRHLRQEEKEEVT

Structure (SMILES)	EC50 [1] [nM]	ΔTm at 100 µM [2] [°C]	EC50 (Human PBMC cells) [µM]
CCn1nc(C)cc1C(=O)Nc1nc2cc(C(N)=O)cc3c2n1C(CC=CC[C@H]1COc2cc(C(N)=O)cc4nc(NC(=O)c5cc(C)nn5CC)n1c24)CCCO3 (stereo partly drawn) [Example 8, 10-(4-((S)-7-carbamoyl-2-(1-ethyl-3-methyl-1H-pyrazole-5-carboxamido)-3,4-dihydro-5-oxa-1,2a-diazaacenaphthylen-3-yl)but-2-en-1-yl)-1-(1-ethyl-3-methyl-1H-pyrazole-5-carboxamido)-7,8,9,10-tetrahydro-6-oxa-2,10a-diazacycloocta[cd]indene-4-carboxamide]	6400	–	–
CCn1nc(C)cc1C(=O)Nc1nc2cc(C(N)=O)cc3c2n1[C@@H](C/C=C/C[C@H]1COc2cc(C(N)=O)cc4nc(NC(=O)c5cc(C)nn5CC)n1c24)CO3 [Example 1, (3S,3″S)-3,3″-((E)-but-2-ene-1,4-diyl)bis(2-(1-ethyl-3-methyl-1H-pyrazole-5-carboxamido)-3,4-dihydro-5-oxa-1,2a-diazaacenaphthylene-7-carboxamide)]	200	14.6	0.22
CCn1nc(C)cc1C(=O)Nc1nc2cc(C(N)=O)cc3c2n1C(CC=CCC1CCCOc2cc(C(N)=O)cc4nc(NC(=O)c5cc(C)nn5CC)n1c24)CCCO3 (centres unmarked) [Example 7, 10,10″-(but-2-ene-1,4-diyl)bis(1-(1-ethyl-3-methyl-1H-pyrazole-5-carboxamido)-7,8,9,10-tetrahydro-6-oxa-2,10a-diazacycloocta[cd]indene-4-carboxamide)]	–	6.2	–
CCn1nc(C)cc1C(=O)Nc1nc2cc(C(N)=O)cc3c2n1[C@@H](C/C=C/C[C@H]1COc2cc(C(N)=O)cc4nc(NC(=O)C(C)(C)C)n1c24)CO3 [Example 4, (S)-3-((E)-4-((S)-7-carbamoyl-2-(1-ethyl-3-methyl-1H-pyrazole-5-carboxamido)-3,4-dihydro-5-oxa-1,2a-diazaacenaphthylen-3-yl)but-2-en-1-yl)-2-pivalamido-3,4-dihydro-5-oxa-1,2a-diazaacenaphthylene-7-carboxamide]	11500	7.5	–
CCn1nc(C)cc1C(=O)Nc1nc2cc(C(N)=O)cc3c2n1[C@@H](C/C=C/C[C@H]1CN(CCCOC)c2cc(C(N)=O)cc4nc(NC(=O)c5cc(C)nn5CC)n1c24)CN3C [Example 13, (S)-4-((E)-4-((S)-8-carbamoyl-2-(1-ethyl-3-methyl-1H-pyrazole-5-carboxamido)-6-(3-methoxypropyl)-5,6-dihydro-4H-imidazo[1,5,4-de]quinoxalin-4-yl)but-2-en-1-yl)-2-(1-ethyl-3-methyl-1H-pyrazole-5-carboxamido)-6-methyl-5,6-dihydro-4H-imidazo[1,5,4-de]quinoxaline-8-carboxamide]	180	–	–
CCn1nc(C)cc1C(=O)Nc1nc2cc(C(N)=O)cc3c2n1[C@@H](CCCC[C@H]1COc2cc(C(N)=O)cc4nc(NC(=O)c5cc(C)nn5CC)n1c24)CO3 [Example 5, (3S,3″S)-3,3″-(butane-1,4-diyl)bis(2-(1-ethyl-3-methyl-1H-pyrazole-5-carboxamido)-3,4-dihydro-5-oxa-1,2a-diazaacenaphthylene-7-carboxamide)]	430	9.1	–
CCn1nc(C)cc1C(=O)Nc1nc2cc(C(=O)O)cc3c2n1[C@@H](C/C=C/C[C@H]1COc2cc(C(=O)O)cc4nc(NC(=O)c5cc(C)nn5CC)n1c24)CO3 [Example 3, (3S,3″S)-3,3″-((E)-but-2-ene-1,4-diyl)bis(2-(1-ethyl-3-methyl-1H-pyrazole-5-carboxamido)-3,4-dihydro-5-oxa-1,2a-diazaacenaphthylene-7-carboxylic acid)]	–	5.9	–
CCn1nc(C)cc1C(=O)Nc1nc2cc(C(N)=O)cc3c2n1[C@@H](C/C=C/C[C@H]1CN(CCCOC)c2cc(C(N)=O)cc4nc(NC(=O)c5cc(C)nn5CC)n1c24)CN3CCCOC [Example 11, (4S,4′S)-4,4′-((E)-but-2-ene-1,4-diyl)bis(2-(1-ethyl-3-methyl-1H-pyrazole-5-carboxamido)-6-(3-methoxypropyl)-5,6-dihydro-4H-imidazo[1,5,4-de]quinoxaline-8-carboxamide)]	150	–	0.19

The next lines start with results.

EC50 [1] [nM]	ΔTm at 100 µM [2] [°C]	Structure (SMILES)	EC50 (Human PBMC cells) [µM]
54	–	CCn1nc(C)cc1C(=O)Nc1nc2cc(C(N)=O)cc3c2n1[C@@H](C/C=C/C[C@H]1CN(C)c2cc(C(N)=O)cc4nc(NC(=O)c5cc(C)nn5CC)n1c24)CN3C [Example 9, (4S,4′S)-4,4′-((E)-but-2-ene-1,4-diyl)bis(2-(1-ethyl-3-methyl-1H-pyrazole-5-carboxamido)-6-methyl-5,6-dihydro-4H-imidazo[1,5,4-de]quinoxaline-8-carboxamide)]	0.14
12	–	CCn1nc(C)cc1C(=O)Nc1nc2cc(C(N)=O)cc3c2n1[C@@H](C/C=C\C[C@H]1CN(C)c2cc(C(N)=O)cc4nc(NC(=O)c5cc(C)nn5CC)n1c24)CN3C [Example 10, (4S,4′S)-4,4′-((Z)-but-2-ene-1,4-diyl)bis(2-(1-ethyl-3-methyl-1H-pyrazole-5-carboxamido)-6-methyl-5,6-dihydro-4H-imidazo[1,5,4-de]quinoxaline-8-carboxamide)]	0.05
140	–	CCn1nc(C)cc1C(=O)Nc1nc2cc(C(N)=O)cc3c2n1[C@@H](C/C=C\C[C@H]1CN(CCCOC)c2cc(C(N)=O)cc4nc(NC(=O)c5cc(C)nn5CC)n1c24)CN3CCCOC [Example 12, (4S,4′S)-4,4′-((Z)-but-2-ene-1,4-diyl)bis(2-(1-ethyl-3-methyl-1H-pyrazole-5-carboxamido)-6-(3-methoxypropyl)-5,6-dihydro-4H-imidazo[1,5,4-de]quinoxaline-8-carboxamide)]	0.058
6	12.2	CCn1nc(C)cc1C(=O)Nc1nc2cc(C(N)=O)cc3c2n1[C@@H](C/C=C\C[C@H]1COc2cc(C(N)=O)cc4nc(NC(=O)c5cc(C)nn5CC)n1c24)CO3 [Example 2, (3S,3″S)-3,3″-((Z)-but-2-ene-1,4-diyl)bis(2-(1-ethyl-3-methyl-1H-pyrazole-5-carboxamido)-3,4-dihydro-5-oxa-1,2a-diazaacenaphthylene-7-carboxamide)]	0.026
60	–	CCn1nc(C)cc1C(=O)Nc1nc2cc(C(N)=O)cc3c2n1[C@@H](C/C=C\C[C@H]1CN(CCCOC)c2cc(C(N)=O)cc4nc(NC(=O)c5cc(C)nn5CC)n1c24)CN3C [Example 14, (S)-4-((Z)-4-((S)-8-carbamoyl-2-(1-ethyl-3-methyl-1H-pyrazole-5-carboxamido)-6-(3-methoxypropyl)-5,6-dihydro-4H-imidazo[1,5,4-de]quinoxalin-4-yl)but-2-en-1-yl)-2-(1-ethyl-3-methyl-1H-pyrazole-5-carboxamido)-6-methyl-5,6-dihydro-4H-imidazo[1,5,4-de]quinoxaline-8-carboxamide]	–
